Results: patent publication US20240041042A1, “1-(PYRIDYL)-5-AZINYLPYRAZOLE DERIVATIVES, AND THEIR USE FOR CONTROL OF UNDESIRED PLANT GROWTH” (Bayer Aktiengesellschaft, priority 2020, published 2024)
Read-outs that look alike come from different tables or passages of the source.

Experiments:
Type in all cases: in vivo
[1] = tested on: Abutilon theophrasti (ABUTH); assay: Pre-emergence herbicidal action against ABUTH; details: 100% = plants have died
Source text: Seeds of monocotyledonous and dicotyledonous weed plants and crop plants are placed in plastic or organic planting pots and covered with soil. The compounds of the invention, formulated in the form of wettable powders (WP) or as emulsion concentrates (EC), are then applied to the surface of the covering soil as aqueous suspension or emulsion with addition of 0.5% additive at a water application rate equivalent to 600 l/ha. After the treatment, the pots are placed in a greenhouse and kept under good growth conditions for the trial plants. After about 3 weeks, the effect of the preparations is scored visually in comparison with untreated controls as percentages. For example, 100% activity=the plants have died, 0% activity=like control plants.
Tables A1 to A13 below show the effects of selected compounds of the general formula (I) on various harmful plants and at an application rate corresponding to 320 g/ha or lower, which were obtained by the experimental procedure mentioned above. The appendices “a”, “b” and “c” give differentiation by dosage used with otherwise the same harmful plants tested.

[2] = tested on: Alopecurus myosuroides (ALOMY); assay: Pre-emergence herbicidal action against ALOMY; details: scored visually after about 3 weeks, 100% = plants have died
Outline: (§1)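 Pre-emergence soil-surface spray, WP/EC formulation, 0.5% additive, 600 l/ha water, rates of 320 g/ha or lower. Greenhouse, ~3 wk. Visual score, % of untreated control (100% = plants dead, 0% = like control).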

[3] = tested on: Amaranthus retroflexus (AMARE); assay: Pre-emergence herbicidal action against AMARE; details: visual scoring after about 3 weeks vs untreated controls
Outline: as §1

[4] = tested on: Avena fatua (AVEFA); assay: Pre-emergence herbicidal action against AVEFA; details: 320 g/ha, visual scoring after about 3 weeks vs untreated controls
Outline: as §1

[5] = tested on: Echinochloa crus-galli (ECHCG); assay: Pre-emergence herbicidal action against ECHCG
Outline: as §1

[6] = tested on: Matricaria inodora (MATIN); assay: Pre-emergence herbicidal action against MATIN
Outline: as §1

[7] = tested on: Pharbitis purpurea (PHBPU); assay: Pre-emergence herbicidal action against PHBPU
Outline: as §1

[8] = tested on: Polygonum convolvulus (POLCO); assay: Pre-emergence herbicidal action against POLCO
Outline: as §1

[9] = tested on: Setaria viridis (SETVI); assay: Pre-emergence herbicidal action against SETVI
Outline: as §1

[10] = tested on: Verconica persica (VERPE); assay: Pre-emergence herbicidal action against VERPE
Outline: as §1

[11] = tested on: Viola tricolor (VIOTR); assay: Pre-emergence herbicidal action against VIOTR
Outline: as §1

[12] = tested on: Alopecurus myosuroides (ALOMY); assay: Post-emergence herbicidal action against ALOMY; details: visual rating about 3 weeks after treatment vs untreated controls (100% = plants have died, 0% = like control plants)
Outline: (§2)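 Values are percent visual activity (0% like control, 100% plants dead) after about 3 weeks in the greenhouse. Treatment: post-emergence spray at one-leaf stage, 600 l/ha spray volume, 0.5% additive, doses 320 g/ha or lower.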

[13] = tested on: Amaranthus retroflexus (AMARE); assay: Post-emergence herbicidal action against AMARE
Outline: as §2

[14] = tested on: Avena fatua (AVEFA); assay: Post-emergence herbicidal action against AVEFA; details: visual rating about 3 weeks after treatment
Outline: as §2

[15] = tested on: Echinochloa crus-galli (ECHCG); assay: Post-emergence herbicidal action against ECHCG
Outline: as §2

[16] = tested on: Matricaria inodora (MATIN); assay: Post-emergence herbicidal action against MATIN; details: dosage 320 g/ha
Outline: as §2

[17] = tested on: Pharbitis purpurea (PHBPU); assay: Post-emergence herbicidal action against PHBPU
Outline: as §2

[18] = tested on: Setaria viridis (SETVI); assay: Post-emergence herbicidal action against SETVI
Outline: as §2

[19] = tested on: Verconica persica (VERPE); assay: Post-emergence herbicidal action against VERPE
Outline: as §2

[20] = tested on: Viola tricolor (VIOTR); assay: Post-emergence herbicidal action against VIOTR
Outline: as §2

[21] = tested on: Oryza sativa (ORYSA); details: crop plant compatibility
Outline: (§3)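 Test crops were treated 2 to 3 weeks after sowing, once they reached one leaf, by spraying compound in water with 0.5% additive at 600 l/ha. Visual scoring compared them with untreated controls roughly 3 weeks on, and appendices a, b and c denote different doses.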

[22] = tested on: Lolium rigidum (LOLRI); assay: Pre-emergence herbicidal action against LOLRI
Outline: as §1

[23] = tested on: Abutilon theophrasti (ABUTH); assay: Post-emergence herbicidal action against ABUTH; details: visual rating about 3 weeks after treatment vs untreated controls (100% = plants have died, 0% = like control plants)
Outline: as §2

[24] = tested on: Lolium rigidum (LOLRI); assay: Post-emergence herbicidal action against LOLRI
Outline: as §2

[25] = tested on: Zea mays (ZEAMX); details: crop plant compatibility, 80 g/ha, effect vs untreated controls
Outline: as §3

[26] = tested on: Polygonum convolvulus (POLCO); assay: Post-emergence herbicidal action against POLCO; details: dosage 80 g/ha
Outline: as §2

[27] = Dosage column 320 g/ha (title prints 3200 g/ha), scored visually after about 3 weeks
[28] = 80 g/ha, visual rating about 3 weeks after treatment vs untreated controls (100% = plants have died, 0% = like control plants)
[29] = 320 g/ha, visual rating about 3 weeks after treatment
[30] = 80 g/ha, effect in comparison to untreated controls
[31] = 80 g/ha, scored visually after about 3 weeks vs untreated controls, 0% = like control plants

| SMILES | Pre-emergence action against ABUTH [1, 27] | Pre-emergence action against ALOMY ([2]; 80 g/ha) | Pre-emergence action against ALOMY ([2]; 320 g/ha) | Pre-emergence action against AMARE in % ([3]; 80 g/ha) | Pre-emergence action against AMARE in % ([3]; 320 g/ha) | Pre-emergence action against AVEFA in % [4] | Pre-emergence action against ECHCG in % ([5]; dosage 80 g/ha) | Pre-emergence action against ECHCG in % ([5]; dosage 320 g/ha) | Pre-emergence action against MATIN in % ([6]; dosage 320 g/ha) | Pre-emergence action against PHBPU in % ([7]; dosage 80 g/ha) | Pre-emergence action against PHBPU in % ([7]; dosage 320 g/ha) | Pre-emergence action against POLCO in % ([8]; dosage 80 g/ha) | Pre-emergence action against POLCO in % ([8]; dosage 320 g/ha) | Pre-emergence action against SETVI in % ([9]; dosage 320 g/ha) | Pre-emergence action against VERPE in % ([10]; dosage 320 g/ha) | Pre-emergence action against VIOTR in % ([11]; 320 g/ha, Viola tricolor) | Pre-emergence action against VIOTR in % ([11]; dosage 80 g/ha) | Post-emergence action against ALOMY in % ([12]; 80 g/ha) | Post-emergence action against AMARE in % [13, 28] | Post-emergence action against ORYSA in % [21, 30] | also measured |
| --- | --- | --- | --- | --- | --- | --- | --- | --- | --- | --- | --- | --- | --- | --- | --- | --- | --- | --- | --- | --- | --- |
| Cc1cccnc1-n1nc(OCC(=O)O)c(Br)c1-c1cncc(F)c1 [Example I-204] | 80% | 90% | 100% | 90% | 100% | 80% | 90% | 100% | 90% | 90% | 90% | 90% | 90% | 100% | 100% | 100% | 100% | 90% | 80% | 0% | Pre-emergence action against SETVI in % ([9]; dosage 80 g/ha): 90%; Post-emergence action against ALOMY in % ([12]; 320 g/ha): 90%; Post-emergence action against AMARE in % [13, 29]: 80%; Post-emergence action against AVEFA in % ([14]; 320 g/ha): 80%; Post-emergence action against ECHCG in % ([15]; dosage 80 g/ha): 80%; Post-emergence action against ECHCG in % ([15]; dosage 320 g/ha): 80%; Post-emergence action against MATIN in % [16]: 80%; Post-emergence action against PHBPU in % ([17]; dosage 320 g/ha): 80%; Post-emergence action against SETVI in % ([18]; dosage 80 g/ha): 90%; Post-emergence action against SETVI in % ([18]; dosage 320 g/ha): 90%; Post-emergence action against VERPE in % ([19]; 320 g/ha, VERPE): 90%; Post-emergence action against VERPE in % ([19]; dosage 80 g/ha): 90%; Post-emergence action against VIOTR in % ([20]; 80 g/ha): 80%; Post-emergence action against VIOTR in % ([20]; 320 g/ha): 80% |
| COC(=O)[C@@H](C)Oc1nn(-c2nc(F)ccc2F)c(-c2ccc(F)nc2)c1Cl [Example I-332] | 80% |  | 100% | 80% | 100% | 100% | 80% | 100% | 90% |  | 100% | 80% | 80% | 100% | 90% | 100% | 90% | 80% | 80% | 20% | Pre-emergence action against ABUTH [1, 31]: 80%; Pre-emergence action against LOLRI in % ([22]; dosage 80 g/ha): 90%; Pre-emergence action against LOLRI in % ([22]; dosage 320 g/ha): 100%; Pre-emergence action against VERPE in % ([10]; dosage 80 g/ha): 80%; Post-emergence action against ABUTH in % ([23]; 80 g/ha): 80%; Post-emergence action against ABUTH in % ([23]; 320 g/ha): 80%; Post-emergence action against ALOMY in % ([12]; 320 g/ha): 90%; Post-emergence action against AMARE in % [13, 29]: 80%; Post-emergence action against AVEFA in % ([14]; 80 g/ha): 80%; Post-emergence action against AVEFA in % ([14]; 320 g/ha): 90%; Post-emergence action against ECHCG in % ([15]; dosage 80 g/ha): 80%; Post-emergence action against ECHCG in % ([15]; dosage 320 g/ha): 90%; Post-emergence action against LOLRI in % ([24]; dosage 80 g/ha): 80%; Post-emergence action against LOLRI in % ([24]; dosage 320 g/ha): 90%; Post-emergence action against PHBPU in % ([17]; dosage 80 g/ha): 80%; Post-emergence action against PHBPU in % ([17]; dosage 320 g/ha): 80%; Post-emergence action against SETVI in % ([18]; dosage 320 g/ha): 80%; Post-emergence action against VERPE in % ([19]; 320 g/ha, VERPE): 80%; Post-emergence action against VIOTR in % ([20]; 320 g/ha): 80%; Post-emergence action against ZEAMX in % [25]: 10% |
| C[C@@H](Oc1nn(-c2ccccn2)c(-c2cncc(F)c2)c1Br)C(=O)O [Example I-79] | 90% | 90% | 100% | 100% | 100% | 100% | 80% | 100% | 90% | 90% | 90% | 90% | 90% | 100% | 100% | 100% | 100% | 80% | 90% | 0% | Pre-emergence action against ABUTH [1, 31]: 80%; Pre-emergence action against LOLRI in % ([22]; dosage 80 g/ha): 100%; Pre-emergence action against LOLRI in % ([22]; dosage 320 g/ha): 100%; Pre-emergence action against MATIN in % ([6]; dosage 80 g/ha): 80%; Pre-emergence action against SETVI in % ([9]; dosage 80 g/ha): 100%; Pre-emergence action against VERPE in % ([10]; dosage 80 g/ha): 80%; Post-emergence action against ABUTH in % ([23]; 80 g/ha): 80%; Post-emergence action against AVEFA in % ([14]; 80 g/ha): 100%; Post-emergence action against PHBPU in % ([17]; dosage 80 g/ha): 80%; Post-emergence action against POLCO in % [26]: 80%; Post-emergence action against SETVI in % ([18]; dosage 80 g/ha): 80%; Post-emergence action against VERPE in % ([19]; dosage 80 g/ha): 80%; Post-emergence action against ORYSA in % ([21]; 20 g/ha, effect vs untreated controls): 0% |
